The test has as its target SHP2 (Homo sapiens (Human), UniProt Q06124). Nature of the test: SHP2 allosteric inhibition assay (DiFMUP prompt fluorescence). The following applies: 0.2 nM SHP2 activated with 0.5 μM Activating Peptide 1 or 2; substrate DiFMUP; Table 2, class symbols. It counts as biochemical. A digest of the protocol: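 0.2 nM SHP2 was preincubated 30-60 min at 25° C with 0.5 μM bis-phosphotyrosyl activating peptide and compound (0.00005-10 μM) in 50 mM HEPES pH 7.2, 100 mM NaCl, 0.5 mM EDTA, 0.05% P-20, 1 mM DTT. DiFMUP hydrolysis was read kinetically (ex 340/em 450 nm); IC50 came from normalized fits of initial rates.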

The structures appear in SMILES notation.

This note sets out measurements from patent US11673901B2, “Polycyclic compounds as allosteric SHP2 inhibitors” (Revolution Medicines, Inc., priority 2017, dated 2023).

Broadly, the IC50 is the midpoint of a concentration-inhibition curve. Read a low IC50 as greater potency.

Sequence of SHP2 (Q06124 whole entry): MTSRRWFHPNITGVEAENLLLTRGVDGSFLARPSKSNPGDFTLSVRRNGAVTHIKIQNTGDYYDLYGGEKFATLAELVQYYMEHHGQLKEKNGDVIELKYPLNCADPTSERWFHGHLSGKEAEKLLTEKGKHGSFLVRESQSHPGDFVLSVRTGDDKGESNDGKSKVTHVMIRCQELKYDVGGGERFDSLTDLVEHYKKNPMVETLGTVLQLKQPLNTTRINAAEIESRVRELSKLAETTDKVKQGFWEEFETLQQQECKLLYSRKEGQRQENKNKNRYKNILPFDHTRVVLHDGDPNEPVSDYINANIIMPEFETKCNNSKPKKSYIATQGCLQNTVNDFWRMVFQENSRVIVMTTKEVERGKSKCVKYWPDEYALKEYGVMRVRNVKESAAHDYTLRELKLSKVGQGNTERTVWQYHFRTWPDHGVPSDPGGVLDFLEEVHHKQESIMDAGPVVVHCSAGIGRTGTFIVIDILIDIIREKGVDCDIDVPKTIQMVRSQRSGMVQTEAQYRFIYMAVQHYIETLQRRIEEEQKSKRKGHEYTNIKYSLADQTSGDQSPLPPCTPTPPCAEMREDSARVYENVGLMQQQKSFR

In turn, `Nc1nccc(Sc2cnc(N3CCOCC3)n3ccnc23)c1Cl` [Compound 68] registered an IC50 greater than 500 nM.

For `Nc1nccc(Sc2cnc(N3CCC[C@@H]3CO)n3ccnc23)c1Cl` [Compound 72], the half-maximal inhibitory concentration (IC50) was greater than 500 nM.

Turning to `Nc1nccc(Sc2cnc(NCCO)n3ccnc23)c1Cl` [Compound 73], the concentration for half-maximal inhibition (IC50) was greater than 500 nM.

As to `C[C@H](O)CNc1ncc(Sc2ccnc(N)c2Cl)c2nccn12` [Compound 74], the 50% inhibitory concentration (IC50) is greater than 500 nM.

In turn, `Nc1nccc(Sc2cnc(N3CC(O)C3)n3ccnc23)c1Cl` [Compound 75] gave a 50% inhibitory concentration (IC50) greater than 500 nM.

For `Nc1nccc(Sc2cnc(N3CC[C@H](O)C3)n3ccnc23)c1Cl` [Compound 76], the 50% inhibitory concentration (IC50) is greater than 500 nM.

`Nc1nccc(Sc2cnc(N3CC[C@@H](O)C3)n3ccnc23)c1Cl` [Compound 77]: the IC50 is greater than 500 nM.

`Nc1nccc(Sc2cnc(N3CCC(c4ncc[nH]4)CC3)n3ccnc23)c1Cl` [Compound 78] had an IC50 greater than 500 nM.

Compound `CC1(O)CCN(c2ncc(Sc3ccnc(N)c3Cl)c3nccn23)CC1` [Compound 79] yielded an IC50 greater than 500 nM.

On to `Nc1nccc(Sc2cnc(N[C@H]3CC[C@@H](O)C3)n3ccnc23)c1Cl` [Compound 80], for which the half-maximal inhibitory concentration (IC50) is greater than 500 nM.

Consider `Nc1nccc(Sc2cnc(O[C@H]3CC[C@@H](N)C3)n3ccnc23)c1Cl` [Compound 81, 4-[(5-{[(1S,3R)-3-aminocyclopentyl]oxy}imidazo[1,2-c]pyrimidin-8-yl)sulfanyl]-3-chloropyridin-2-amine], for which the 50% inhibitory concentration (IC50) was greater than 500 nM.

In turn, `C[C@@H]1OCC2(CCN(c3nc4[nH]nc(-c5cccc(Cl)c5Cl)c4c4nccn34)CC2)[C@@H]1N` [Compound 83, (3S,4S)-8-[12-(2,3-dichlorophenyl)-3,6,8,10,11-pentaazatricyclo[7.3.0.0^2,6]dodeca-1(12),2,4,7,9-pentaen-7-yl]-3-methyl-2-oxa-8-azaspiro[4.5]decan-4-amine] had a 50% inhibitory concentration (IC50) of no more than 50 nM.
